In patent publication US20220257704A1, “COMBINATION OF CHEMOTHERAPY WITH RECOMBINANT S. ROLFSII LECTIN” (Unichem Laboratories Ltd, priority 2018, published 2022):
Where two headings read alike, the source gives them in different places.

Experiments:
Assay in all cases: MTT cytotoxicity assay, 48 h, alone and in combination (IC50 and Combination Index)
Type in all cases: cell-based
PA-1 cell line = tested on: PA-1 cell line
Procedure: In a further study, PA-1 cells were treated with Cisplatin(0.01 μM-5 μM) in combination with SEQ ID NO: 1(1 μg/mL-20 μg/mL) for 48 h. Similarly another set of cells were treated with Paclitaxel (0.01 nM-5 nM) in combination with SEQ ID NO: 1 (1 μg/mL-20 μg/mL).

MDA-MB-231 cell line = tested on: MDA-MB-231 cell line
Procedure: (§1) The cell were kept in contact with the recombinant lectin of SEQ ID NO: 1 and the chemotherapy agent for 48 h and the cytotoxic effect (percentage cytotoxicity) was measured. The cytotoxic effect was determined by well-known colorimetric MTT assay (Mossman, T. 1983 Rapid colorimetric assay for cellular growth and survival: application to proliferation and cytotoxicity assays Journal of Immunological Methods, volume 65, pages 55-63) for assessing cell metabolic activity.
(§2) Based on percentage cytotoxicity data, IC50 values were determined using the software GraphPad Prism version 4.01.
(§3) Combination Index (CI) values were determined for each drug concentration combination. The CI values were calculated based on the IC50 values using the formula as given in below.
A study was performed to determine the effect of the concentration of the recombinant lectin represented by SEQ ID NO: 1 on the IC50 of Paclitaxel for cytotoxicity in MDA-MB-231 cells. Conversely the effect of the concentration of Paclitaxel on the IC50 of the recombinant lectin represented by SEQ ID NO: 1.
Similarly another study was performed for Carboplatin in combination with the recombinant lectin of SEQ ID NO: 1.
In a further study, MDA-MB-231 cells were treated with Paclitaxel (0.001 nM-10 nM) in combination with SEQ ID NO: 1(2.5 μg/mL-80 μg/mL) for 48 h. Similarly another set of cells were treated with Carboplatin (10 μM-1000 μM) in combination with SEQ ID NO: 1 (2.5 μg/mL-80 μg/mL).

T24 cell line = settings: for Conc. of other therapeutic agents showing synergistic effect: paired with SEQ ID NO: 1 conc.
Procedure: as §1, §2, §3
A study was performed to determine the effect of the concentration of the recombinant lectin represented by SEQ ID NO: 1 on the IC50 of Cisplatin for cytotoxicity in T24 cells. Conversely the effect of the concentration of Cisplatin on the IC50 of the recombinant lectin represented by SEQ ID NO: 1.
Similarly another study was performed for Gemcitabine in combination with the recombinant lectin of SEQ ID NO: 1.
This was performed using the same techniques as in Example 1-1.
In a further study, T24 cells were treated with Cisplatin (1 μM-500 μM) in combination with SEQ ID NO: 1(2.5 μg/mL-80 μg/mL) for 48 h. Similarly another set of cells were treated with Gemcitabine (1 μM-300 μM) in combination with SEQ ID NO: 1 (2.5 μg/mL-80 μg/mL). Combination Index values were determined for each drug combination and resultant antagonistic, additive or synergistic effect was determined, as described in Example 1-2.

PANC-1 cell line = settings: Homo sapiens
Procedure: The cytotoxic effect on each combination was determined by MTT assay.
as §3

HT-29 cell line = settings: Homo sapiens
KB cell line = tested on: KB cell line
Procedure: A study was performed to determine the effect of the concentration of the recombinant lectin represented by SEQ ID NO: 1 on the IC50 of5-FU for cytotoxicity in KB cells.
Similarly another study was performed for Cisplatin in combination with the recombinant lectin of SEQ ID NO: 1.
Similarly another set of cells were treated with Cisplatin(0.1 μM to 1.5 μM)in combination with SEQ ID NO: 1(5.0 μg/mL-90 μg/mL).

[1] = SEQ ID NO: 1 at 5 μg/mL, read-out: IC50 of Cisplatin
[2] = SEQ ID NO: 1 at 10 μg/mL, read-out: IC50 of Cisplatin
[3] = SEQ ID NO: 1 at 20 μg/mL, read-out: IC50 of Cisplatin
[4] = SEQ ID NO: 1 at […], read-out: IC50 of Cisplatin
[5] = SEQ ID NO: 1 at 0 μg/mL, read-out: IC50 of Cisplatin
[6] = SEQ ID NO: 1 at 40 μg/mL, read-out: IC50 of Cisplatin

CC(=O)O[C@H]1C(=O)[C@@]2(C)[C@H]([C@H](OC(=O)c3ccccc3)[C@]3(O)C[C@H](OC(=O)[C@H](O)[C@@H](NC(=O)c4ccccc4)c4ccccc4)C(C)=C1C3(C)C)[C@]1(OC(C)=O)CO[C@@H]1C[C@@H]2O [Paclitaxel, reference compound]
IC50 (PA-1 cell line; Homo sapiens, PA-1, SEQ ID NO: 1 at 0 μg/mL, read-out: IC50 of Paclitaxel): 4.04 nM
IC50 (PA-1 cell line; Homo sapiens, PA-1, SEQ ID NO: 1 at 1 μg/mL, read-out: IC50 of Paclitaxel): 3.62 nM
IC50 (PA-1 cell line; Homo sapiens, PA-1, SEQ ID NO: 1 at 5 μg/mL, read-out: IC50 of Paclitaxel): 0.222 nM
IC50 (PA-1 cell line; Homo sapiens, PA-1, SEQ ID NO: 1 at […], read-out: IC50 of Paclitaxel): 3.48 nM
Conc. of other therapeutic agents showing synergistic effect (PA-1 cell line; Paclitaxel with SEQ ID NO: 1, paired with SEQ ID NO: 1 conc.): 0.25 to 5 nM
IC50 (MDA-MB-231 cell line; Homo sapiens, MDA-MB-231, SEQ ID NO: 1 at 0 μg/mL, read-out: IC50 of Paclitaxel): 1.64 nM
IC50 (MDA-MB-231 cell line; Homo sapiens, MDA-MB-231, SEQ ID NO: 1 at 5 μg/mL, read-out: IC50 of Paclitaxel): 9.31 nM
IC50 (MDA-MB-231 cell line; Homo sapiens, MDA-MB-231, SEQ ID NO: 1 at 10 μg/mL, read-out: IC50 of Paclitaxel): 0.389 nM
IC50 (MDA-MB-231 cell line; Homo sapiens, MDA-MB-231, SEQ ID NO: 1 at 20 μg/mL, read-out: IC50 of Paclitaxel): 0.123 nM
IC50 (MDA-MB-231 cell line; Homo sapiens, MDA-MB-231, SEQ ID NO: 1 at […], read-out: IC50 of Paclitaxel): 3.98 nM

Nc1ccn([C@@H]2O[C@H](CO)[C@@H](O)C2(F)F)c(=O)n1 [Gemcitabine, reference compound]
Conc. of other therapeutic agents showing synergistic effect (T24 cell line; Gemcitabine with SEQ ID NO: 1): 1 to 300 µM
IC50 (T24 cell line; Homo sapiens, T-24, SEQ ID NO: 1 at 0 μg/mL, read-out: IC50 of Gemcitabine): 15400 nM
IC50 (T24 cell line; Homo sapiens, T-24, SEQ ID NO: 1 at 5 μg/mL, read-out: IC50 of Gemcitabine): 141 nM
IC50 (T24 cell line; Homo sapiens, T-24, SEQ ID NO: 1 at 10 μg/mL, read-out: IC50 of Gemcitabine): 0.32 nM
IC50 (T24 cell line; Homo sapiens, T-24, SEQ ID NO: 1 at 20 μg/mL, read-out: IC50 of Gemcitabine): 0.02 nM
IC50 (T24 cell line; Homo sapiens, T-24, SEQ ID NO: 1 at […], read-out: IC50 of Gemcitabine): 802 nM
IC50 (PANC-1 cell line; PANC-1, SEQ ID NO: 1 at 0 μg/mL, read-out: IC50 of Gemcitabine): 7410 nM
IC50 (PANC-1 cell line; PANC-1, SEQ ID NO: 1 at 5 μg/mL, read-out: IC50 of Gemcitabine): 10800 nM
IC50 (PANC-1 cell line; PANC-1, SEQ ID NO: 1 at 10 μg/mL, read-out: IC50 of Gemcitabine): 3040 nM
IC50 (PANC-1 cell line; PANC-1, SEQ ID NO: 1 at 20 μg/mL, read-out: IC50 of Gemcitabine): 39 nM
IC50 (PANC-1 cell line; PANC-1, SEQ ID NO: 1 at 40 μg/mL, read-out: IC50 of Gemcitabine): 38 nM
IC50 (PANC-1 cell line; PANC-1, SEQ ID NO: 1 at 80 μg/mL, read-out: IC50 of Gemcitabine): 10600 nM
IC50 (PANC-1 cell line; PANC-1, SEQ ID NO: 1 at […], read-out: IC50 of Gemcitabine): 15900 nM

CCc1c2c(nc3ccc(OC(=O)N4CCC(N5CCCCC5)CC4)cc13)-c1cc3c(c(=O)n1C2)COC(=O)[C@]3(O)CC [Irinotecan, reference compound]
IC50 (HT-29 cell line; HT-29, SEQ ID NO: 1 at 0 μg/mL, read-out: IC50 of Irinotecan): 16200 nM
IC50 (HT-29 cell line; HT-29, SEQ ID NO: 1 at 1 μg/mL, read-out: IC50 of Irinotecan): 49200 nM
IC50 (HT-29 cell line; HT-29, SEQ ID NO: 1 at 5 μg/mL, read-out: IC50 of Irinotecan): 2780 nM
IC50 (HT-29 cell line; HT-29, SEQ ID NO: 1 at 10 μg/mL, read-out: IC50 of Irinotecan): 5450 nM
IC50 (HT-29 cell line; HT-29, SEQ ID NO: 1 at 20 μg/mL, read-out: IC50 of Irinotecan): 1340 nM
IC50 (HT-29 cell line; HT-29, SEQ ID NO: 1 at 40 μg/mL, read-out: IC50 of Irinotecan): 278 nM
IC50 (HT-29 cell line; HT-29, SEQ ID NO: 1 at 80 μg/mL, read-out: IC50 of Irinotecan): 167 nM

N.N.O=C([O-])C1(C(=O)[O-])CCC1.[Pt+2] [Carboplatin, reference compound]
IC50 (MDA-MB-231 cell line; SEQ ID NO: 1 at 0 μg/mL, read-out: IC50 of Carboplatin): 477000 nM
IC50 (MDA-MB-231 cell line; SEQ ID NO: 1 at 5 μg/mL, read-out: IC50 of Carboplatin): 3980 nM
IC50 (MDA-MB-231 cell line; SEQ ID NO: 1 at 10 μg/mL, read-out: IC50 of Carboplatin): 4920 nM
IC50 (MDA-MB-231 cell line; SEQ ID NO: 1 at 20 μg/mL, read-out: IC50 of Carboplatin): 8440 nM
IC50 (MDA-MB-231 cell line; SEQ ID NO: 1 at 40 μg/mL, read-out: IC50 of Carboplatin): 1420 nM
IC50 (MDA-MB-231 cell line; SEQ ID NO: 1 at 80 μg/mL, read-out: IC50 of Carboplatin): 5870 nM
IC50 (MDA-MB-231 cell line; SEQ ID NO: 1 at […], read-out: IC50 of Carboplatin): 226000 nM

O=c1[nH]cc(F)c(=O)[nH]1 [5-FU, 5-Fluorouracil, reference compound]
IC50 (PANC-1 cell line; PANC-1, read-out: IC50 of 5-FU, SEQ ID NO: 1 at 0 μg/mL): 87000 nM
IC50 (PANC-1 cell line; PANC-1, read-out: IC50 of 5-FU, SEQ ID NO: 1 at 5 μg/mL): 1410 nM
IC50 (PANC-1 cell line; PANC-1, read-out: IC50 of 5-FU, SEQ ID NO: 1 at 10 μg/mL): 1260 nM
IC50 (PANC-1 cell line; PANC-1, read-out: IC50 of 5-FU, SEQ ID NO: 1 at 20 μg/mL): 869 nM
IC50 (PANC-1 cell line; PANC-1, read-out: IC50 of 5-FU, SEQ ID NO: 1 at 40 μg/mL): 8450 nM
IC50 (PANC-1 cell line; PANC-1, read-out: IC50 of 5-FU, SEQ ID NO: 1 at 80 μg/mL): 725 nM
IC50 (PANC-1 cell line; PANC-1, read-out: IC50 of 5-FU, SEQ ID NO: 1 at […]): 297000 nM
Conc. of other therapeutic agents showing synergistic effect (KB cell line; 5-FU with SEQ ID NO: 1, paired with SEQ ID NO: 1 conc.): 0.01 to 5 µM
IC50 (KB cell line; Homo sapiens, KB, read-out: IC50 of 5-FU, SEQ ID NO: 1 at 0 μg/mL): 15 nM
IC50 (KB cell line; Homo sapiens, KB, read-out: IC50 of 5-FU, SEQ ID NO: 1 at 5 μg/mL): 0.1 nM
IC50 (KB cell line; Homo sapiens, KB, read-out: IC50 of 5-FU, SEQ ID NO: 1 at 10 μg/mL): 0.00531 nM
IC50 (KB cell line; Homo sapiens, KB, read-out: IC50 of 5-FU, SEQ ID NO: 1 at 20 μg/mL): 0.0134 nM
IC50 (KB cell line; Homo sapiens, KB, read-out: IC50 of 5-FU, SEQ ID NO: 1 at 30 μg/mL): 0.00119 nM
IC50 (HT-29 cell line; HT-29, read-out: IC50 of 5-FU, SEQ ID NO: 1 at 0 μg/mL): 137000 nM
IC50 (HT-29 cell line; HT-29, read-out: IC50 of 5-FU, SEQ ID NO: 1 at 1 μg/mL): 173000 nM
IC50 (HT-29 cell line; HT-29, read-out: IC50 of 5-FU, SEQ ID NO: 1 at 5 μg/mL): 25900 nM
IC50 (HT-29 cell line; HT-29, read-out: IC50 of 5-FU, SEQ ID NO: 1 at 10 μg/mL): 4510 nM
IC50 (HT-29 cell line; HT-29, read-out: IC50 of 5-FU, SEQ ID NO: 1 at 20 μg/mL): 282 nM
IC50 (HT-29 cell line; HT-29, read-out: IC50 of 5-FU, SEQ ID NO: 1 at 40 μg/mL): 1240 nM
IC50 (HT-29 cell line; HT-29, read-out: IC50 of 5-FU, SEQ ID NO: 1 at 80 μg/mL): 4880 nM

N.N.[Cl][Pt][Cl] [Cisplatin, reference compound]
IC50 (PA-1 cell line; SEQ ID NO: 1 at 1 μg/mL, read-out: IC50 of Cisplatin): 716 nM
IC50 (PA-1 cell line; [1]): 93 nM
IC50 (PA-1 cell line; [2]): 4.2 nM
IC50 (PA-1 cell line; SEQ ID NO: 1 at 15 μg/mL, read-out: IC50 of Cisplatin): 0.5 nM
IC50 (PA-1 cell line; [3]): 0.1 nM
IC50 (PA-1 cell line; [4]): 314 nM
Conc. of other therapeutic agents showing synergistic effect (T24 cell line; Cisplatin with SEQ ID NO: 1): 1 to 500 µM
IC50 (T24 cell line; [5]): 39000 nM
IC50 (T24 cell line; [1]): 3800 nM
IC50 (T24 cell line; [2]): 97.1 nM
IC50 (T24 cell line; [3]): 34.4 nM
IC50 (T24 cell line; [6]): 83.6 nM
IC50 (T24 cell line; SEQ ID NO: 1 at 80 μg/mL, read-out: IC50 of Cisplatin): 13.4 nM
IC50 (T24 cell line; [4]): 22900 nM
IC50 (KB cell line; [5]): 722 nM
IC50 (KB cell line; [1]): 375 nM
IC50 (KB cell line; [2]): 269 nM
IC50 (KB cell line; [3]): 134 nM
IC50 (KB cell line; SEQ ID NO: 1 at 30 μg/mL, read-out: IC50 of Cisplatin): 66.2 nM
IC50 (KB cell line; [6]): 7.12 nM
IC50 (KB cell line; SEQ ID NO: 1 at 90 μg/mL, read-out: IC50 of Cisplatin): 9.93 nM
